Values quoted from earlier work, collected in patent US7943127B2 (priority 2004, dated 2011).

Settings: in vivo, iv

## COc1cc(CNC(=O)CCCC/C=C/C(C)C)ccc1O [Capsaicin, (E)-N-((4-Hydroxy-3-methoxyphenyl)-methyl)-8-methyl-6-nonenamide]
  lethal toxic dose: about 0.56 mg/kg
